Data on eleven compounds can be found in PubChem BioAssay (NCI).

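In this assay, cells in 96-well plates receive the compound at five concentrations for 48 hours. Endpoints are linearly interpolated between the surrounding concentrations. GI50 = concentration required for 50% inhibition of growth. TGI: total growth inhibition.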 Some results are limits rather than exact numbers.

Some test systems named below: UACC-257 melanoma; A498 renal; HCT-116 colon; HS 578T breast; OVCAR-5 ovarian; NCI-H226 lung; LOX IMVI melanoma; HOP-92 NSCLC.
Holding throughout (assay): inhibition of tumour cell growth, NCI panel, 48 h

With `O=NNc1ccc(S(=O)(=O)c2ccc3ccccc3c2)cn1`, the TGI in the test with UACC-257 melanoma, with A498 renal, in the test with HCT-116 colon, with HS 578T breast, with OVCAR-5 ovarian and in the test on NCI-H226 lung was over 100 µM throughout.

For the compound `N#Cc1cc(S(=O)(=O)Nc2nc3cc(Cl)ccc3o2)c(SCc2ccccc2)cc1Cl`, the GI50 with UACC-257 melanoma was 13 µM; in the test with A498 renal, 11.5 µM; with HCT-116 colon it was 15.4 µM; with OVCAR-5 ovarian, 13 µM; with NCI-H226 lung, 17.8 µM; in the test with LOX IMVI melanoma, 13.5 µM. Also, the GI50 with HOP-92 NSCLC was 10.5 µM. The TGI with UACC-257 melanoma came to 25.7 µM; in the test on A498 renal it was 23.6 µM; in the test on HCT-116 colon, 28.7 µM; with OVCAR-5 ovarian it was 25.7 µM; with NCI-H226 lung, 43.4 µM; in the test with LOX IMVI melanoma it was 26.3 µM. In the test on HOP-92 NSCLC, this compound showed a TGI of 23.5 µM.

`Nc1ccccc1C#Cc1ccccc1C#Cc1cccs1`: the GI50 in the test with UACC-257 melanoma was 18.1 µM; with A498 renal, 15.1 µM; in the test with HCT-116 colon, 12.8 µM; in the test on OVCAR-5 ovarian it was 14.5 µM; in the test on NCI-H226 lung, 17.7 µM; in the test on LOX IMVI melanoma, 14 µM. Besides, in the test on HOP-92 NSCLC, the GI50 is 5.87 µM. Moreover, the TGI was determined as 53.2 µM with UACC-257 melanoma; 29.5 µM in the test on A498 renal; 25.4 µM in the test with HCT-116 colon; 30 µM in the test on OVCAR-5 ovarian; 43.3 µM in the test on NCI-H226 lung; 27.5 µM with LOX IMVI melanoma. Further, in the test with HOP-92 NSCLC, the TGI worked out at 22.2 µM.

For `O=c1cccc(Cl)[nH]1`, the TGI with UACC-257 melanoma, in the test with HCT-116 colon, with HS 578T breast, in the test with OVCAR-5 ovarian, with NCI-H226 lung and with LOX IMVI melanoma was over 100 µM throughout. The same compound yielded a TGI in the test with HOP-92 NSCLC of over 100 µM.

With `Cn1cnnc1[S-].[Au+].c1ccc([PH+](c2ccccc2)c2ccccc2)cc1`, the GI50 is 1.35 µM in the test on UACC-257 melanoma; 1.72 µM with HCT-116 colon; 1.88 µM with OVCAR-5 ovarian; 2.75 µM with NCI-H226 lung; 1.35 µM in the test with LOX IMVI melanoma; 1.88 µM with HOP-92 NSCLC. Moreover, the TGI worked out at 2.94 µM in the test with UACC-257 melanoma; 3.26 µM with HCT-116 colon; 3.49 µM in the test with OVCAR-5 ovarian; 9.08 µM in the test with NCI-H226 lung; 2.71 µM in the test on LOX IMVI melanoma; 3.31 µM with HOP-92 NSCLC.

`Cc1ccc(C2CC(c3ccc(Nc4ccnc5cc(Cl)ccc45)cc3)=NN2C=O)cc1` (stereo not given): the GI50 in the test with UACC-257 melanoma is over 100 µM; in the test with HCT-116 colon it was 25.2 µM; with OVCAR-5 ovarian, over 100 µM; in the test with NCI-H226 lung, over 100 µM; in the test with LOX IMVI melanoma, 4.11 µM; in the test on HOP-92 NSCLC it was 2.14 µM. Besides, the TGI with UACC-257 melanoma, with HCT-116 colon, in the test with OVCAR-5 ovarian, with NCI-H226 lung, in the test on LOX IMVI melanoma and in the test on HOP-92 NSCLC was over 100 µM in each case.

Turning to `CS(=O)(=O)Nc1cc(-c2ccc3ncnc(Nc4cccc(Cl)c4)c3c2)cnc1Cl`, the GI50 in the test on HCT-116 colon is 0.664 µM; in the test with HS 578T breast, 0.088 µM; with OVCAR-5 ovarian it was 0.223 µM; in the test with NCI-H226 lung it was 1.1 µM; in the test on LOX IMVI melanoma, 0.33 µM; in the test with HOP-92 NSCLC, 0.122 µM. Moreover, the TGI with HCT-116 colon amounted to 5.87 µM; in the test on HS 578T breast, 0.782 µM; in the test on OVCAR-5 ovarian it was 13.5 µM; in the test with NCI-H226 lung, 7.62 µM; in the test on LOX IMVI melanoma, 2.19 µM; with HOP-92 NSCLC, 0.96 µM.

For the compound `CCOC(=O)[C@@H]1CSC(CC)=C(C(=O)O)N1`, the GI50 in the test with UACC-257 melanoma, in the test with HCT-116 colon, in the test on HS 578T breast, in the test with OVCAR-5 ovarian, in the test with NCI-H226 lung and in the test on LOX IMVI melanoma was over 100 µM each time. Besides, in the test on HOP-92 NSCLC, the GI50 was over 100 µM. In addition, the TGI with UACC-257 melanoma, in the test on HCT-116 colon, with HS 578T breast, with OVCAR-5 ovarian, in the test with NCI-H226 lung and in the test on LOX IMVI melanoma was over 100 µM in each case. The compound also registered a TGI in the test with HOP-92 NSCLC of over 100 µM.

Take `COc1ccc(C)cc1NC(=S)C#N`: the TGI with UACC-257 melanoma, with A498 renal, with HCT-116 colon, in the test on OVCAR-5 ovarian, in the test with NCI-H226 lung and in the test with LOX IMVI melanoma was over 100 µM in each case. This compound yielded a TGI in the test with HOP-92 NSCLC of over 100 µM.

Consider `COc1ccc(-c2cc(/C=C/C(=O)c3ccc(N)cc3)[nH]n2)cc1`, for which the GI50 in the test on UACC-257 melanoma is 1.9 µM; with A498 renal it was 2.03 µM; with HS 578T breast, 4.04 µM; in the test with OVCAR-5 ovarian, 2.06 µM; in the test with NCI-H226 lung it was 2.05 µM. Moreover, the TGI with UACC-257 melanoma was 4.21 µM; in the test on A498 renal, 4.95 µM; in the test with HS 578T breast it was 24.4 µM; with OVCAR-5 ovarian, 4.92 µM; in the test with NCI-H226 lung, 5.57 µM.

Take `O=C(O)CCCCC1CCSS1` (stereo not given): the TGI in the test on UACC-257 melanoma, in the test on HCT-116 colon, in the test with HS 578T breast, in the test with OVCAR-5 ovarian, in the test on NCI-H226 lung and in the test with LOX IMVI melanoma was over 100 µM throughout. The TGI with HOP-92 NSCLC was over 100 µM.
